Experimental data reported in ChEMBL document CHEMBL1149063, “Secondary metabolites by chemical screening, 26.1 7-O-beta-D-galactosyl-brefeldin A via transglycosylation with Penicillium brefeldianum” (J Nat Prod, 1994).
Values after ≈ are worked out from the molar mass of the structure shown.

Columns and labels:
A549 = assay: Antiproliferative activity against human A549 cells by MTT reduction assay; type: functional, cell-based
L1210 = assay: Antiproliferative activity against mouse L1210 cells by MTT reduction assay; type: functional, cell-based
HT-29 = assay: Antiproliferative activity against human HT-29 cells by MTT reduction assay; type: functional, cell-based
[1] = Toxicity in po dosed rat; type: organism-based; settings: in vivo

Structure (SMILES)	IC50 (A549) [µg/mL]	IC50 (L1210) [µg/mL]	IC50 (HT-29) [µg/mL]	LD50 [1] [mg/kg]
C[C@H]1CCC/C=C/[C@@H]2C[C@H](O[C@@H]3O[C@H](CO)[C@H](O)[C@H](O)[C@H]3O)C[C@H]2[C@H](O)/C=C/C(=O)O1 [7-O-BETA-D-GALACTOSYL-BREFELDIN A]	1.2 (≈ 2.71 µM)	10 (≈ 22.6 µM)	1.3 (≈ 2.94 µM)	
C[C@H]1CCC/C=C/[C@@H]2C[C@H](O)C[C@H]2[C@H](O)/C=C/C(=O)O1 [BREFELDIN A]				275
